PubChem BioAssay (NCI)
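Growth conditions: 96-well plates. Treatment: test compound, 48 hours, 5 concentrations. Analysis: linear interpolation between bracketing concentrations; unreached endpoints set to highest concentration. GI50: concentration for 50% inhibition of growth. TGI marks complete inhibition of growth.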

Legend:
Experiment in all cases: growth of human tumour cells (NCI), 48 h
[1] = test system: 786-0 renal
[2] = test system: SNB-75 CNS
[3] = test system: NCI-H226 lung
[4] = test system: SNB-19 CNS
[5] = test system: SF-295 CNS
[6] = test system: OVCAR-8 ovarian
[7] = test system: EKVX NSCLC
[8] = test system: HOP-62 NSCLC
[9] = test system: PC-3 prostate
[10] = test system: DU-145 prostate

SMILES | TGI [1] | TGI [2] | TGI [3] | TGI [4] | TGI [5] | TGI [6] | TGI [7] | TGI [8] | GI50 [1] | GI50 [2] | GI50 [9] | TGI [9] | GI50 [4] | GI50 [5] | GI50 [10] | TGI [10] | GI50 [6] | GI50 [7] | GI50 [8] | GI50 [3]
COC(=O)C(C(=O)C(=O)Nc1ccccc1C(C)=O)c1nc2ccc(Cl)cc2[nH]c1=O (stereo not given) | > 100 µM | > 100 µM | > 100 µM | > 100 µM | > 100 µM | > 100 µM | > 100 µM | > 100 µM |  |  |  |  |  |  |  |  |  |  |  | 
CCC1=C(C)/C(=C/c2[nH]c(CBr)c(CC)c2C)N=C1CBr | 40.4 µM | 55.9 µM |  | 33.9 µM | 42.7 µM | 26.6 µM | 49.1 µM | 34.8 µM |  |  |  |  |  |  |  |  |  |  |  | 
Cc1c(C(=O)CC(=O)C(=O)Nc2ccc(Cl)c(Cl)c2)[n+](=O)c2ccccc2n1[O-] | 69 µM | 48.9 µM | > 100 µM | > 100 µM | > 100 µM | 43.6 µM | 36.9 µM | > 100 µM |  |  |  |  |  |  |  |  |  |  |  | 
ClC1CCC2OOC1O2 (stereo not given) | > 100 µM | > 100 µM | > 100 µM | > 100 µM | > 100 µM | > 100 µM | > 100 µM | > 100 µM |  |  |  |  |  |  |  |  |  |  |  | 
CCOC(=O)c1ccc(N(CCOS(C)(=O)=O)CCOS(C)(=O)=O)cc1C | 42.2 µM | 87.1 µM |  | > 100 µM | > 100 µM | > 100 µM | > 100 µM | 55 µM | 16.7 µM | 34.5 µM | 30.4 µM | > 100 µM | 62.6 µM | 21.9 µM | 18.4 µM | 38.9 µM | 44 µM | 29.5 µM | 17.6 µM | 
COc1ccc(NC(=O)C(=O)C2CNC(=O)NC2=O)c(OC)c1 (stereo not given) | > 100 µM | > 100 µM | > 100 µM | > 100 µM | > 100 µM | > 100 µM | > 100 µM | > 100 µM |  |  |  |  |  |  |  |  |  |  |  | 
COC(=O)C1=CN=C(C(=O)OC)NN1 | > 100 µM | > 100 µM | > 100 µM | > 100 µM | > 100 µM | > 100 µM |  | > 100 µM |  |  |  |  |  |  |  |  |  |  |  | 
CC(=O)OCc1cc(OC(C)=O)cnc1COC(C)=O | > 100 µM | > 100 µM | > 100 µM | > 100 µM | > 100 µM | > 100 µM | > 100 µM | > 100 µM |  |  |  |  |  |  |  |  |  |  |  | 
COc1ccc(C(c2ccc(C(C)C)cc(=O)c2O)c2ccc3cccnc3c2O)cc1 (stereo not given) | 5.61 µM | 0.589 µM | 4.38 µM |  | 7.43 µM | 12.7 µM | 7.86 µM | 2.29 µM |  |  |  |  |  |  |  |  |  |  |  | 
C[C@@H](CO)OCOCc1ccccc1 | > 100 µM | > 100 µM |  | > 100 µM | > 100 µM |  |  | > 100 µM |  |  |  |  |  |  |  |  |  |  |  | 
COc1cc(/C=C2\CN(C)C/C(=C\c3cc(OC)c(OC)c(OC)c3)C2=O)cc(OC)c1OC |  | 2.48 µM | 0.588 µM | 2.6 µM | 1.12 µM | 75.7 µM |  | 1.13 µM | 0.27 µM | 0.667 µM | 1.32 µM | 4.52 µM | 1.14 µM | 0.319 µM | 0.355 µM | 1.22 µM | 0.312 µM |  | 0.36 µM | 0.239 µM
N.N.N.N.N.N.[I-].[Os] | > 100 µM | > 100 µM | > 100 µM | > 100 µM | > 100 µM | > 100 µM | > 100 µM | > 100 µM | > 100 µM | > 100 µM |  |  | > 100 µM | > 100 µM |  |  | > 100 µM | > 100 µM | > 100 µM | > 100 µM
Cc1ccc([N+](=O)[O-])cc1NC(=O)C(=O)Cc1occc(=O)c1O | > 100 µM | > 100 µM | > 100 µM | > 100 µM | > 100 µM | > 100 µM | > 100 µM | > 100 µM |  |  |  |  |  |  |  |  |  |  |  | 
Cc1ccc(S(=O)(=O)/N=c2\ssc(Nc3ccccc3)c2Cl)cc1 | > 50 µM |  | > 50 µM | > 50 µM | 12.4 µM | > 50 µM | 16.9 µM | > 50 µM | 27.7 µM |  | 6.95 µM | 18.4 µM | 12.8 µM | 1.15 µM | 7.74 µM | 27.6 µM | 16.5 µM | 6.03 µM | 23.6 µM | 19.2 µM
O=C(Nc1ccccc1)Nc1cccc(-n2cc(-c3ccncc3)c(-c3ccc(O)c(Cl)c3)n2)c1 | 11.7 µM | 10.7 µM | > 100 µM | > 100 µM | 4.73 µM | 21 µM |  | 53.6 µM | 3.24 µM | 1.68 µM | 3.19 µM | 19.6 µM | 6.27 µM | 2.1 µM | 5.66 µM | > 100 µM | 3.27 µM |  | 4.93 µM | 7.35 µM
CC1(C)OC(C(N)=O)=C(C(N)=O)O1 | > 100 µM | > 100 µM | > 100 µM | > 100 µM | > 100 µM | > 100 µM | > 100 µM | > 100 µM |  |  |  |  |  |  |  |  |  |  |  | 
O=C(/C=C\c1cccc2ccccc12)c1cccs1 | 22.5 µM | 61.3 µM |  | 25.3 µM | 34.6 µM | 24.9 µM | 25.9 µM | 41.5 µM |  |  |  |  |  |  |  |  |  |  |  | 
COc1ccc(-c2nn(-c3cccc(NC(=O)Nc4ccc(Cl)c(C(F)(F)F)c4)c3)cc2-c2ccncc2)cc1Cl | 4.49 µM | 9.56 µM | 8.22 µM | > 100 µM | 7.23 µM | 13.1 µM |  | 17.3 µM | 1.91 µM | 1.91 µM | 1.32 µM | 6.85 µM | 3.77 µM | 2.31 µM | 4.47 µM | > 100 µM | 2.43 µM |  | 3.37 µM | 2.53 µM
CN(C)C(=O)/N=c1\ss/c(=N\C(=S)N(C)C)n1-c1ccccc1 | 47.1 µM | 71.1 µM | > 100 µM | > 100 µM | > 100 µM | > 61.1 µM | > 100 µM | > 100 µM |  |  |  |  |  |  |  |  |  |  |  | 
O=C(O)c1ccc(O)c(N=Nc2cc(S(=O)(=O)O)c3ccccc3c2O)c1 | > 100 µM | > 100 µM | > 100 µM | > 100 µM | > 10 µM | > 100 µM | > 100 µM | 35.6 µM |  |  |  |  |  |  |  |  |  |  |  | 
